Experimental data taken from BindingDB's records for doi:10.1021/jm00078a018 (Merck Research Laboratories, 1994).
pIC50: −log10 of the molar value.

Assay: Inhibition of binding of [125I]-CCK-8 to the cholecystokinin type B receptor
In the case of `COc1cccc(NC(=O)NC2N=C(c3ccccc3)c3ccccc3N(CC(=O)N3CCCC3)C2=O)c1` (configuration not stated) [1-(3-Methoxy-phenyl)-3-[2-oxo-1-(2-oxo-2-pyrrolidin-1-yl-ethyl)-5-phenyl-2,3-dihydro-1H-benzo[e][1,4]diazepin-3-yl]-urea], the pIC50 was 9.62.
For `COc1cccc(NC(=O)NC2N=C(c3ccccc3)c3ccccc3N(CC(=O)N3CCN(C)CC3)C2=O)c1` (configuration not stated) [1-(3-Methoxy-phenyl)-3-{1-[2-(4-methyl-piperazin-1-yl)-2-oxo-ethyl]-2-oxo-5-phenyl-2,3-dihydro-1H-benzo[e][1,4]diazepin-3-yl}-urea], the pIC50 was 8.36.
`CN1C(=O)C(NC(=O)Nc2ccc(Br)cc2)N=C(c2ccccc2)c2ccccc21` (configuration not stated) [1-(4-Bromo-phenyl)-3-(1-methyl-2-oxo-5-phenyl-2,3-dihydro-1H-benzo[e][1,4]diazepin-3-yl)-urea] gave a pIC50 of 7.32.
`O=C(Nc1ccc(Cl)cc1)NC1N=C(c2ccccc2)c2ccccc2NC1=O` (configuration not stated) [1-(4-Chloro-phenyl)-3-(2-oxo-5-phenyl-2,3-dihydro-1H-benzo[e][1,4]diazepin-3-yl)-urea] gave a pIC50 of 6.57.
Work on `CN1C(=O)[C@H](NC(=O)Nc2ccc(Cl)cc2)N=C(c2ccccc2)c2ccccc21` [1-(4-Chloro-phenyl)-3-((R)-1-methyl-2-oxo-5-phenyl-2,3-dihydro-1H-benzo[e][1,4]diazepin-3-yl)-urea] yielded a pIC50 of 7.70.
Molecule `CN1C(=O)[C@@H](NC(=O)Nc2ccc(Cl)cc2)N=C(c2ccccc2)c2ccccc21` [1-(4-Chloro-phenyl)-3-((S)-1-methyl-2-oxo-5-phenyl-2,3-dihydro-1H-benzo[e][1,4]diazepin-3-yl)-urea] has a pIC50 of 5.96.
`O=C(Nc1ccc(Cl)cc1)NC1N=C(c2ccccc2)c2ccccc2N(C[C@@H](O)CO)C1=O` (some centres not stated) [1-(4-Chloro-phenyl)-3-[1-(2,3-dihydroxy-propyl)-2-oxo-5-phenyl-2,3-dihydro-1H-benzo[e][1,4]diazepin-3-yl]-urea] showed a pIC50 of 6.98.
For `O=C(Nc1ccc(Cl)cc1)NC1N=C(c2ccccc2)c2ccccc2N(C[C@@H](O)CN2CCCC2)C1=O` (some centres not stated) [1-(4-Chloro-phenyl)-3-[1-(2-hydroxy-3-pyrrolidin-1-yl-propyl)-2-oxo-5-phenyl-2,3-dihydro-1H-benzo[e][1,4]diazepin-3-yl]-urea], the pIC50 was 6.52.
For `CCN(CC)C[C@H](O)CN1C(=O)C(NC(=O)Nc2ccc(Cl)cc2)N=C(c2ccccc2)c2ccccc21` (some centres not stated) [1-(4-Chloro-phenyl)-3-[1-(3-diethylamino-2-hydroxy-propyl)-2-oxo-5-phenyl-2,3-dihydro-1H-benzo[e][1,4]diazepin-3-yl]-urea], the pIC50 was 6.39.
`O=C(Nc1ccc(Cl)cc1)NC1N=C(c2ccccc2)c2ccccc2N(Cc2nnn[nH]2)C1=O` (configuration not stated) [1-(4-Chloro-phenyl)-3-[2-oxo-5-phenyl-1-(1H-tetrazol-5-ylmethyl)-2,3-dihydro-1H-benzo[e][1,4]diazepin-3-yl]-urea] showed a pIC50 of 6.31.
For `CN1CCN(C(=O)CN2C(=O)C(NC(=O)Nc3ccc(Cl)cc3)N=C(c3ccccc3)c3ccccc32)CC1` (configuration not stated) [1-(4-Chloro-phenyl)-3-{1-[2-(4-methyl-piperazin-1-yl)-2-oxo-ethyl]-2-oxo-5-phenyl-2,3-dihydro-1H-benzo[e][1,4]diazepin-3-yl}-urea], the pIC50 was 9.10.
For `CN1C(=O)C(NC(=O)Nc2ccc(F)cc2)N=C(c2ccccc2)c2ccccc21` (configuration not stated) [1-(4-Fluoro-phenyl)-3-(1-methyl-2-oxo-5-phenyl-2,3-dihydro-1H-benzo[e][1,4]diazepin-3-yl)-urea], the pIC50 was 7.18.
Molecule `COc1ccc(NC(=O)NC2N=C(c3ccccc3)c3ccccc3N(C)C2=O)cc1` (configuration not stated) [1-(4-Methoxy-phenyl)-3-(1-methyl-2-oxo-5-phenyl-2,3-dihydro-1H-benzo[e][1,4]diazepin-3-yl)-urea] has a pIC50 of 7.59.
Work on `CN1C(=O)C(NC(=O)Nc2ccc(N)nc2)N=C(c2ccccc2)c2ccccc21` (configuration not stated) [1-(6-Amino-pyridin-3-yl)-3-(1-methyl-2-oxo-5-phenyl-2,3-dihydro-1H-benzo[e][1,4]diazepin-3-yl)-urea] yielded a pIC50 of 6.30.
`CN1C(=O)C(NC(=O)Nc2ccc(Cl)nc2)N=C(c2ccccc2)c2ccccc21` (configuration not stated) [1-(6-Chloro-pyridin-3-yl)-3-(1-methyl-2-oxo-5-phenyl-2,3-dihydro-1H-benzo[e][1,4]diazepin-3-yl)-urea] showed a pIC50 of 7.34.
Molecule `COc1ccc(NC(=O)NC2N=C(c3ccccc3)c3ccccc3N(C)C2=O)cn1` (configuration not stated) [1-(6-Methoxy-pyridin-3-yl)-3-(1-methyl-2-oxo-5-phenyl-2,3-dihydro-1H-benzo[e][1,4]diazepin-3-yl)-urea] has a pIC50 of 6.34.
`CN1C(=O)C(NC(=O)Nc2ccc3c(c2)OCO3)N=C(c2ccccc2)c2ccccc21` (configuration not stated) [1-Benzo[1,3]dioxol-5-yl-3-(1-methyl-2-oxo-5-phenyl-2,3-dihydro-1H-benzo[e][1,4]diazepin-3-yl)-urea] gave a pIC50 of 7.59.
`CN1C(=O)C(NC(=O)NCc2ccccc2)N=C(c2ccccc2)c2ccccc21` (configuration not stated) [1-Benzyl-3-(1-methyl-2-oxo-5-phenyl-2,3-dihydro-1H-benzo[e][1,4]diazepin-3-yl)-urea] gave a pIC50 of 6.07.
Work on `CN1C(=O)C(NC(=O)Nc2cccc(-c3ccccc3)c2)N=C(c2ccccc2)c2ccccc21` (configuration not stated) [1-Biphenyl-3-yl-3-(1-methyl-2-oxo-5-phenyl-2,3-dihydro-1H-benzo[e][1,4]diazepin-3-yl)-urea] yielded a pIC50 of 6.95.
For `CN1C(=O)C(NC(=O)NC2CCCCC2)N=C(c2ccccc2)c2ccccc21` (configuration not stated) [1-Cyclohexyl-3-(1-methyl-2-oxo-5-phenyl-2,3-dihydro-1H-benzo[e][1,4]diazepin-3-yl)-urea], the pIC50 was 5.52.
With `CN1C(=O)C(NC(=O)Nc2ccc3c(c2)CCC3)N=C(c2ccccc2)c2ccccc21` (configuration not stated) [1-Indan-5-yl-3-(1-methyl-2-oxo-5-phenyl-2,3-dihydro-1H-benzo[e][1,4]diazepin-3-yl)-urea] the pIC50 was 8.57.
`Cc1cccc(NC(=O)NC2N=C(c3ccccc3)c3ccccc3N(Cc3ncc[nH]3)C2=O)c1` (configuration not stated) [1-[1-(1H-Imidazol-2-ylmethyl)-2-oxo-5-phenyl-2,3-dihydro-1H-benzo[e][1,4]diazepin-3-yl]-3-m-tolyl-urea] gave a pIC50 of 7.23.
For `Cc1cccc(NC(=O)NC2N=C(c3ccccc3)c3ccccc3N(Cc3cnc[nH]3)C2=O)c1` (configuration not stated) [1-[1-(1H-Imidazol-4-ylmethyl)-2-oxo-5-phenyl-2,3-dihydro-1H-benzo[e][1,4]diazepin-3-yl]-3-m-tolyl-urea], the pIC50 was 8.10.
Molecule `COc1cccc(NC(=O)NC2N=C(c3ccccc3)c3ccccc3N(CCN(C)C)C2=O)c1` (configuration not stated) [1-[1-(2-Dimethylamino-ethyl)-2-oxo-5-phenyl-2,3-dihydro-1H-benzo[e][1,4]diazepin-3-yl]-3-(3-methoxy-phenyl)-urea] has a pIC50 of 6.72.
For `Cc1cccc(NC(=O)NC2N=C(c3ccccc3)c3ccccc3N(CCN(C)C)C2=O)c1` (configuration not stated) [1-[1-(2-Dimethylamino-ethyl)-2-oxo-5-phenyl-2,3-dihydro-1H-benzo[e][1,4]diazepin-3-yl]-3-m-tolyl-urea], the pIC50 was 7.59.
Work on `Cc1cccc(NC(=O)NC2N=C(c3ccccc3)c3ccccc3N(CCO)C2=O)c1` (configuration not stated) [1-[1-(2-Hydroxy-ethyl)-2-oxo-5-phenyl-2,3-dihydro-1H-benzo[e][1,4]diazepin-3-yl]-3-m-tolyl-urea] yielded a pIC50 of 7.36.
In the case of `O=C(Nc1ccc(Cl)cc1)NC1N=C(c2ccccc2)c2ccccc2N(C[C@@H](O)CCl)C1=O` (some centres not stated) [1-[1-(3-Chloro-2-hydroxy-propyl)-2-oxo-5-phenyl-2,3-dihydro-1H-benzo[e][1,4]diazepin-3-yl]-3-(4-chloro-phenyl)-urea], the pIC50 was 8.22.
